Laboratory results taken from US20260256740A1, “PHARMACEUTICAL COMPOSITION COMPRISING CYCLOHEX-2-ENYLIDENE / 3,3-DIMETHYLINDOLINE COMPOUNDS; METHODS OF TREATING HUMAN DISEASES; AND METHODS OF INDUCING A CALCIUM SENSITIZING EFFECT IN A SUBJECT” (Curadel Surgical Innovations, Inc., priority 2022, published 2026).

Tested on: plasma membrane of living cells
Test: NIR cellular microscopy of living cells
Type: cell-based
Description: Without being limited by theory, PanLN and PanLN-forte are believed unlikely to directly bind myofilaments.

SMILES | crossing of the plasma membrane of living cells
CC1(C)C(/C=C/C2=C(Oc3ccc(CCC(=O)O)cc3)C(=C/C=C3/N(CCC[N+](C)(C)C)c4ccccc4C3(C)C)/CCC2)=[N+](CCC[N+](C)(C)C)c2ccccc21 [PanLN, 2-((E)-2-((E)-2-(4-(2-carboxyethyl)phenoxy)-3-((E)-2-(3,3-dimethyl-1-(3-(trimethylammonio)propyl)indolin-2-ylidene)ethylidene)cyclohex-1-enyl)vinyl)-3,3-dimethyl-1-(3-(trimethylammonio)propyl)-3H-indolium] | does not appear to cross the plasma membrane
CC1(C)C(/C=C/C2=C(c3ccc(CCC(=O)O)cc3)C(=C/C=C3/N(CCC[N+](C)(C)C)c4ccccc4C3(C)C)/CCC2)=[N+](CCC[N+](C)(C)C)c2ccccc21 [PanLN-fort, 2-((E)-2-((E)-2-(4-(2-carboxyethyl)phenyl)-3-((E)-2-(3,3-dimethyl-1-(3-(trimethylammonio)propyl)indolin-2-ylidene)ethylidene)cyclohex-1-enyl)vinyl)-3,3-dimethyl-1-(3-(trimethylammonio)propyl)-3H-indolium] | does not appear to cross the plasma membrane
